# Earlier results, collected in patent publication US20240342244A1, “Isthmin Protein Therapeutics for the Treatment of Non-Alcoholic Fatty Liver Disease” (The Board of Trustees of the Leland Stanford Junior …, priority 2021, published 2024).
# Test system: NAFLD mice
# Settings: daily injections at 30 mg/kg; after 14 days; cited from earlier work
smiles,measurement,value
CC(C)c1onc(-c2c(Cl)cccc2Cl)c1COc1ccc(/C=C/c2cccc(C(=O)O)c2)c(Cl)c1 [GW4064],hepatic steatosis (previously shown),significantly reduce hepatic steatosis
